Assay results as given in patent US20040106540A1, “Method of treating cancer” (priority 2003, published 2004).

What was measured:
Format in all cases: biochemical
[1] = biological target: T1, Akt2 (Homo sapiens, UniProt P31751); test: Akt kinase assay, phosphorylation of GSK3-derived peptide; settings: GSK3 peptide substrate
T1 construct: a middle T tag was added to the 5′ end of the full length Akt2; middle T tag (EYMPME) (N); biotin tag (from pS2neo vector); made in house; host or cells: Drosophila S2 cells
Text: (§1) The ^33P-labeled biotinylated product can be captured and detected using Streptavidin coated Flashplates (NEN LifeSciences) or Streptavidin Membrane Filter Plates (Promega).
(§2) GSK3α (S21) Peptide #3928, biotin-[…] PG (SEQ.ID.NO.: 15), FW=1517.8 (obtained from Macromolecular Resources) for Streptavidin Flashplate or Streptavidin Filter Plate detection.
(§3) GSK3α (S21) Peptide #G80613, […] (SEQ.ID.NO.: 16), FW=1547.8 (obtained from Research Genetics) for Phosphocellulose filter plate detection.
(§4) The reactions were then incubated at room temperature for 45 minutes.
(§5) 200 μl of stopped reaction was transferred to a Streptavidin Flashplate® PLUS (NEN Life Sciences, catalog no. SMP103). The plate was incubated for ≧10 minutes at room temperature on a plate shaker. The contents of each well was aspirated, and the wells rinsed 2 times with 200 μl TBS per well. The wells were then washed 3 times for 5 minutes with 200 μl TBS per well with the plates incubated at room temperature on a platform shaker during wash steps.
(§6) The plates were covered with sealing tape and counted using the Packard TopCount with the appropriate settings for counting [^33P] in Flashplates.
(§7) The enzymatic reactions as described in Step I of the Streptavidin Flash Plate Assay above were performed.
(§8) The reaction was stopped by adding 20 μl of 7.5M Guanidine Hydrochloride.
(§9) The plate was then washed using a vacuum manifold as follows: 1) 4×200 μl/well of 2M NaCl; 2) 6×200 μl/well of 2M NaCl with 1% H3PO4; 3)2×200 μl/well of diH20; and 4)2×100 μl/well of 95% Ethanol. The membranes were then allowed to air dry completely before adding scintillant.
(§10) The bottom of the plate was sealed with white backing tape, 30 μl/well of Microscint 20 (Packard Instruments, catalog no. 6013621) was added. The top of the plate was sealed with clear sealing tape, and the plate then counted using the Packard TopCount with the appropriate settings for [^33P] with liquid scintillant.
(§11) The enzymatic reactions were performed as described in Step 1 of the Streptavidin Flash Plate Assay (above) utilizing […] (SEQ.ID. NO.: 16) as the substrate in place of biotin-[…].
(§12) The reaction was stopped by adding 20 μl of 0.75% H3PO4.
(§13) The bottom of the plate was sealed with white backing tape, then 30 μl/well of Microscint 20 was added. The top of the plate was sealed with clear sealing tape, and the plate counted using the Packard TopCount with the appropriate settings for [^33P] and liquid scintillant.

[2] = biological target: T2, active human Akt1 (Homo sapiens, UniProt P31749); test: as above; settings: GSK3 peptide substrate; read-out: GSK3 Peptide Substrate IC50 (μM) Akt-1
T2 construct: purchased Upstate Biotechnology 14-276
Text: as §1, §2, §3, §4, §5, §6, §7, §8, §9, §10, §11, §12, §13

[3] = biological target: T3, delta PH-Akt1 (Homo sapiens, UniProt P31749); test: Akt kinase assay, phosphorylation of GSK3-derived peptide (PH domain deleted mutant); settings: GSK3 peptide substrate; Akt1 lacking PH domain; read-out: GSK3 Peptide Substrate IC50 (μM) Akt-1 delta PH
T3 construct: PCR deletion mutagenesis was done using the full length Akt1 gene in the pS2neo vector as template; middle T tag (EYMPME) (N); biotin tag (from pS2neo vector); made in house; host or cells: Drosophila S2 cells
Text: For the expression of a pleckstrin homology domain (PH ) deleted (Δ aa 4-129, which includes deletion of a portion of the Akt1 hinge region) version of Akt1, PCR deletion mutagenesis was done using the full length Akt1 gene in the pS2neo vector as template. […] The final PCR product was digested with KpnI and SmaI and ligated into the pS2neo full length Akt1 KpnI/Sma I cut vector, effectively replacing the 5′ end of the clone with the deleted version.
as §1, §2, §3, §4, §5, §6, §7, §8, §9, §10, §11, §12, §13

[4] = biological target: T4, Akt3 (Homo sapiens, UniProt Q9Y243); test: Akt kinase assay, phosphorylation of GSK3-derived peptide; settings: GSK3 peptide substrate
T4 construct: a middle T tag was added to the 5′ end of the full length Akt3 clone; middle T tag (EYMPME) (N); biotin tag (from pS2neo vector); made in house; host or cells: Drosophila S2 cells
Experimental: as §1, §4, §5, §6, §7, §8, §9
The top of the plate was sealed with clear sealing tape, and the plate then counted using the Packard TopCount with the appropriate settings for [^33P] with liquid scintillant. […]

[5] = biological target: T5, PKA catalytic subunit (Bos taurus, UniProt P00517); test: PKA assay (counter screen), Kemptide phosphorylation; settings: read-out: Counter screens IC50 (μM) PKA
T5 construct: purchased UBI (Upstate Biotechnology) 14-114
Experimental: Each individual PKA assay consists of the following components:
1) 10 μl 5× PKA assay buffer (200 mM Tris pH7.5, 100 mM MgCl2, 5 mM 2-mercaptoethanol, 0.5 mM EDTA)
2) 10 μl of a 50 μM stock of Kemptide (Sigma) diluted into water
3) 10 μl ^33P-ATP (prepared by diluting 1.0 μl ^33P-ATP [10 mCi/ml] into 200 μl of a 50 μM stock of unlabeled ATP)
4) 10 μl appropriate solvent control dilution or inhibitor dilution
Assays were assembled in 96 deep-well assay plates. Components #3 and #4 were premixed and in a separate tube, a mixture containing equal volumes of components #1, #2, and #5 was prepared. The assay reaction was initiated by adding 30 μl of the components #1, #2, and #5 mixture to wells containing ^33P-ATP and inhibitor. The liquid in the assay wells was mixed and the assay reactions incubated for 20 minutes at room temperature. The reactions were stopped by adding 50 μl 100 mM EDTA and 100 mM sodium pyrophosphate and mixing.
The enzyme reaction product (phosphorylated Kemptide) was quantitated using p81 phosphocellulose 96 well filter plates (Millipore). Each well of a p81 filter plate was fill with 75 mM phosphoric acid. The wells were aspirated and 170 μl of 75 mM phosphoric acid was added to each well. […] The peptide was trapped on filter following the application of a vacuum. The filters were washed 5× by filling wells with 75 mM phosphoric acid followed by aspiration. After the final wash, the filters were allowed to air dry. 30 μl scintillation fluid was added to each well and the filters counted on a TopCount (Packard).

[6] = system: PKC (mix of isoforms); test: PKC assay (counter screen), myelin basic protein phosphorylation; settings: read-out: Counter screens IC50 (μM) PKC
Experimental: Each PKC assay consists of the following components:
1) 5 μl 10×PKC co-activation buffer (2.5 mM EGTA, 4 mM CaCl2)
2) 10 μl 5×PKC activation buffer (1.6 mg/ml phosphatidylserine, 0.16 mg/ml diacylglycerol, 100 mM Tris pH 7.5, 50 mM MgCl, 5 mM 2-mercaptoethanol)
3) 5 μl ^33P-ATP (prepared by diluting 1.0 μl ^33P-ATP [10 mCi/nil] into 100 μl of a 100 μM stock of unlabeled ATP)
4) 10 μl of a 350 μg/ml stock of myelin basic protein (MBP, UBI) diluted in water
5) 10 μl appropriate solvent control or inhibitor dilution
Final assay concentrations were as follows: 0.25 mM EGTA, 0.4 mM CaCl, 20 mM Tris pH 7.5, 10 mM MgCl, 1 mM 2-mercaptoethanol, 0.32 mg/ml phosphatidylserine, 0.032 mg/mil diacylglycerol, 10 μM 33P-ATP, 70 μg/ml MBP, 10 ng/ml PKC, 0.1 mg/ml BSA.
Assays are performed using 96 deep well assay plates. In each assay well 10 μl of solvent control or appropriate inhibitor dilution with 5 μl ^33P-ATP (components #5 and #3) were premixed. […] The liquid in the assay wells was thoroughly mixed and the assay reactions incubated for 20 minutes at room temperature. The reactions were stopped by adding 100 mM EDTA (50 μl) and 100 mM sodium pyrophosphate (50 μl) and mixing. Phosphorylated MBP was collected on PVDF membranes in 96 well filter plates and quantitated by scintillation counting.

T1 sequence (P31751 whole entry): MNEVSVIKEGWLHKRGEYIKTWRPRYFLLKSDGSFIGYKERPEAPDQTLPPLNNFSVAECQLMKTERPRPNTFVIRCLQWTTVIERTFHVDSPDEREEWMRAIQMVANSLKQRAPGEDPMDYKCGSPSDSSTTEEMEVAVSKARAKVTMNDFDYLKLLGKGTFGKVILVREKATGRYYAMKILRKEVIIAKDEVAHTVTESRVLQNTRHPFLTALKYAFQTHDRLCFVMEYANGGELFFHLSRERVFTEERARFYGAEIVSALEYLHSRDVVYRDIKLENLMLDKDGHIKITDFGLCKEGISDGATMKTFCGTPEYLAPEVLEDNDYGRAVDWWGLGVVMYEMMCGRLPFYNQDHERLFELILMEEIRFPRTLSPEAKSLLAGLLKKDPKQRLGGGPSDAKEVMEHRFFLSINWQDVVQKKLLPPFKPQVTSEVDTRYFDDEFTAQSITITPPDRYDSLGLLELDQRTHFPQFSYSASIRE
T2 sequence (P31749 whole entry): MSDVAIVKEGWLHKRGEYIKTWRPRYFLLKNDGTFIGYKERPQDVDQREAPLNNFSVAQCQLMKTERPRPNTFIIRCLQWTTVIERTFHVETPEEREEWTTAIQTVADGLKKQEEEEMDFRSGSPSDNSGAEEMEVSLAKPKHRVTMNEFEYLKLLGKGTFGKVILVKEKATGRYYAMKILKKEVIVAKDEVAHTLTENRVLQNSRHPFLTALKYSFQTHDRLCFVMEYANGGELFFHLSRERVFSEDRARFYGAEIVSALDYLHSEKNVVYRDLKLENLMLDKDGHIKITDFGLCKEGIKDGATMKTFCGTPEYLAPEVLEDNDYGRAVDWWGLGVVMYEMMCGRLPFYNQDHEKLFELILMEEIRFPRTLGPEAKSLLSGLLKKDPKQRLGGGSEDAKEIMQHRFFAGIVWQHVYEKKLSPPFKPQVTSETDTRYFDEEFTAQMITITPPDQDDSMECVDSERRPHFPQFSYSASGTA
T3 sequence (P31749 with tags, fused parts or gaps): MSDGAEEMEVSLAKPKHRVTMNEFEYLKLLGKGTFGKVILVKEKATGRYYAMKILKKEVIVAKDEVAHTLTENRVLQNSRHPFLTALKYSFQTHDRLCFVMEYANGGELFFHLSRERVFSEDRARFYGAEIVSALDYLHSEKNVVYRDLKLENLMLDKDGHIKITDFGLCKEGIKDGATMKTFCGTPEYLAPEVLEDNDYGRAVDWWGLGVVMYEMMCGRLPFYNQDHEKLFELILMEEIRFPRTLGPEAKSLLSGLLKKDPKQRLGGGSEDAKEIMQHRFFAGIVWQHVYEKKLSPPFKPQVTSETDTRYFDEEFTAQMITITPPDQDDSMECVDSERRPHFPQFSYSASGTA
T4 sequence (Q9Y243 whole entry): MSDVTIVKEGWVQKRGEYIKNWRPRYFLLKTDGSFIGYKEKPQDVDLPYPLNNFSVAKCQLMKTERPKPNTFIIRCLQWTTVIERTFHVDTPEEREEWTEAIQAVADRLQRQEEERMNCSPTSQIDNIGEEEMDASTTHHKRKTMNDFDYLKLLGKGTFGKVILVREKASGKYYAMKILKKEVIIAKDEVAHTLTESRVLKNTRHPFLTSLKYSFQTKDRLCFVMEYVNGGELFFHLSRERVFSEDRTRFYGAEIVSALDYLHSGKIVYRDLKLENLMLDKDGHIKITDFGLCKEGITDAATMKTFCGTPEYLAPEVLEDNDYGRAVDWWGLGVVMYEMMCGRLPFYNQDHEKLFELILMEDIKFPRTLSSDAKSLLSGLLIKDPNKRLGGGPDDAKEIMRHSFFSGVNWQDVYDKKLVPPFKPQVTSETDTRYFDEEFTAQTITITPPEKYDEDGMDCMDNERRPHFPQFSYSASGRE

Compound | IC50 [1] [µM] | IC50 [2] [µM] | IC50 [3] [µM] | IC50 [4] [µM] | IC50 [5] [µM] | IC50 [6] [µM]
6-(2-Hydroxybutyl)oxy-3,7-diphenyl-[1,2,4]triazolo[4,3-b]pyridazine [Compound 9] | > 50 | 4.65 | > 50 | > 50 | > 40 | > 40
CN(C)CC(C)(C)CNc1nn2c(-c3ccccc3)nnc2cc1C1CCC1 [Compound 1, N′-(7-Cyclobutyl-3-phenyl-[1,2,4]triazolo[4,3-b]pyridazin-6-yl)-2,2,N,N-tetramethyl-propane-1,3-diamine] | > 50 | 1.4 | > 50 | > 50 | > 40 | > 40
CN(C)CC(C)(C)CNc1nn2c(-c3cc(F)cc(F)c3)nnc2cc1C1CCC1 [Compound 2, N′-(7-Cyclobutyl-3-(3,5-difluoro-phenyl)-[1,2,4]triazolo[4,3-b]pyridazin-6-yl)-2,2,N,N-tetramethyl-propane-1,3-diamine] | > 50 | 0.42 | > 50 | > 50 | > 40 | > 40
CN(C)CC(C)(C)CNc1nn2c(-c3ccc(F)c(F)c3)nnc2cc1C1CCC1 [Compound 3, N′-(7-Cyclobutyl-3-(3,4-difluoro-phenyl)-[1,2,4]triazolo[4,3-b]pyridazin-6-yl)-2,2,N,N-tetramethyl-propane-1,3-diamine] | > 50 | 0.91 | > 50 | > 50 | > 40 | > 40
CN(C)CC(C)(C)CNc1nn2c(-c3ccc(F)cc3)nnc2cc1C1CCC1 [Compound 4, N′-(7-Cyclobutyl-3-(4-fluoro-phenyl)-[1,2,4]triazolo[4,3-b]pyridazin-6-yl)-2,2,N,N-tetramethyl-propane-1,3-diamine] | > 50 | 2.03 | > 50 | > 50 | > 40 | > 40
CN(C)CC(C)(C)CNc1nn2c(-c3cccc(F)c3)nnc2cc1C1CCC1 [Compound 5, N′-(7-Cyclobutyl-3-(3-fluoro-phenyl)-[1,2,4]triazolo[4,3-b]pyridazin-6-yl)-2,2,N,N-tetramethyl-propane-1,3-diamine] | > 50 | 0.4 | > 50 | > 50 | > 40 | > 40
CN(C)CC(C)(C)CNc1nn2c(-c3ccccc3)nnc2c2ccccc12 [Compound 6, 2,2,N,N-tetramethyl-N-(3-phenyl-[1,2,4]triazolo[3,4-a]phthalazin-6-yl)-propane-1,3-diamine] | > 50 | 10.5 | > 50 | > 50 | > 40 | > 40
COc1ccc(-c2nnc3c4ccccc4c(NCC(C)(C)CN(C)C)nn23)cc1 [Compound 7, N′-[3-(4-Methoxy-phenyl)-[1,2,4]triazolo[4,3-a]phthalazin-6-yl)-2,2,N,N-tetramethyl-propane-1,3-diamine] | > 50 | 3.88 | > 50 | > 50 | > 40 | > 40
OCCOc1nn2c(-c3ccccc3)nnc2cc1-c1ccccc1 [Compound 8, 6-(2-Hydroxyethyl)oxy-3 7-diphenyl-[1,2,4]triazolo[4,3-b]pyridazine] |  | 15.9 |  |  | > 40 | > 40
Nc1ccc(-c2nc3ccccc3nc2-c2ccc(N)cc2)cc1 [Compound 11, 2,3-bis(4-aminophenyl)-quinoxaline] | 45 | 6.1 | > 50 | > 100 | > 80 | > 80
